Target: T1, human GzmA (hGzmA), active recombinant (Homo sapiens, UniProt P12544)
T1 construct: active recombinant enzyme (not the pro-form), dimeric
T1 sequence (P12544 29-262): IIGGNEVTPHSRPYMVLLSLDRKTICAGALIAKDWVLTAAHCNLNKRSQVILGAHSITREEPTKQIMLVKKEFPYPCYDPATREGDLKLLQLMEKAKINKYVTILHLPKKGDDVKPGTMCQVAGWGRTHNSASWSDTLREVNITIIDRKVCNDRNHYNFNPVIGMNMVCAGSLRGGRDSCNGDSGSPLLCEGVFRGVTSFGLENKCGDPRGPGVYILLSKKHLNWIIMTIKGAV
Test: fluorogenic assay with compound […] as substrate
Type: biochemical
Details: 100 μM inhibitor, 20 μM compound 9, 20 nM hGzmA, Tris buffer pH 8; covalent

**Q.** Which “% decrease of the fluorescence signal” value does the source give for `O=c1oc(Cl)c(Cl)c2ccccc12` [3,4‐dichloroisocoumarin] here?
**A.** The value was > 90%.

From publication PMC10953043, “Fluorogenic Granzyme A Substrates Enable Real‐Time Imaging of Adaptive Immune Cell Activity” (Angewandte Chemie (Weinheim an Der Bergstrasse, Germany), 2023)
